Assay results as given in US20260226019A1, “NEGATIVE ALLOSTERIC MODULATORS OF METABOTROPIC GLUTAMATE RECEPTOR 2” (Vanderbilt University, priority 2023, published 2026).

What was measured:
human mGlu2 = biological target: T1, human mGlu2 (Homo sapiens, UniProt Q14416); assay: mGlu GIRK cell-based thallium flux assay, human mGlu2; details: HEK-293 cells co-expressing human mGlu2 and GIRK, EC80 glutamate, single experiment
T1 construct: expressed in transfected cells; host or cells: HEK-293 stably co-expressing GIRK channels
T1 sequence (Q14416 19-872): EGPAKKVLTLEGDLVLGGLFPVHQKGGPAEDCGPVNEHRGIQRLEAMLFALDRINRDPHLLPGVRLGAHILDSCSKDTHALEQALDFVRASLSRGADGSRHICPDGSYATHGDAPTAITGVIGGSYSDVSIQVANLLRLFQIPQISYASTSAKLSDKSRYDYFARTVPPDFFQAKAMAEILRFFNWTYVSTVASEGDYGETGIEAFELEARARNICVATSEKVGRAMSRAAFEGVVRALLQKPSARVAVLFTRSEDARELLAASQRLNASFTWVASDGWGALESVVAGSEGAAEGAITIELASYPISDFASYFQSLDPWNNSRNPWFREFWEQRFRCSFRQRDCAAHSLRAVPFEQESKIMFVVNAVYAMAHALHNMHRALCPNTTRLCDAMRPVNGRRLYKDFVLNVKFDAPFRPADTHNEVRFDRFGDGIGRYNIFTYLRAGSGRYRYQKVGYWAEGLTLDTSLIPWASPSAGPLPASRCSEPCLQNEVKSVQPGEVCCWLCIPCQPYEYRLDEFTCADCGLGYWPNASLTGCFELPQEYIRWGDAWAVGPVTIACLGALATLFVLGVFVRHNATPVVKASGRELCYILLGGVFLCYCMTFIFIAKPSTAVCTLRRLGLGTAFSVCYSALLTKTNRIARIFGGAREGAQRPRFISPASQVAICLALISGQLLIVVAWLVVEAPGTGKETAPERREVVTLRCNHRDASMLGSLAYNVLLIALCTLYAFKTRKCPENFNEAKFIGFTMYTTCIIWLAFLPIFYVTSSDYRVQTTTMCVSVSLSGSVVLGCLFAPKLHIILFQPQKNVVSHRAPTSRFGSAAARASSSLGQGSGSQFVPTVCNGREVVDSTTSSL
Description: (§1) Human embryonic kidney (HEK-293) cell lines stably co-expressing human or rat mGlu2 and G protein-coupled inwardly rectifying potassium (GIRK) channels, or human mGlu3 and GIRK, were used for in vitro evaluation of compound activity in thallium flux assay using a fluorescent thallium indicator dye.
(§2) The day before the assay, GIRK cells co-expressing human mGlu3, human or rat mGlu2, as described above, were plated in black-walled, clear-bottomed, amine-coated 384-well plates at a density of 15,000 cells/[…]/well in the assay medium (glutamine-depleted basal DMEM supplemented with 10% dialyzed FBS, 20 mM HEPES, 1 mM sodium pyruvate). Cells were incubated at 37° C. in the presence of 5% CO2. The next day, assay buffer (Hanks balanced salt solution, 20 mM HEPES, 4.16 mM sodium bicarbonate, pH 7.2) was prepared to dilute compounds and Thallos AM fluorescent dye solution. The 2× Thallos dye solution (final concentration 0.34 μM to the cells) was prepared by mixing the dye stock (2.97 mM in DMSO) to 1:1 with 10% pluronic acid before adding to the assay buffer. Cells were washed with assay buffer using a microplate washer to remove the medium, resulting in 20 μL of buffer remaining in each well. […] During the cell dye loading incubation period, a 10-point concentration serial dilution of compound was created from a 10 mM DMSO compound stock by performing a 1:3 serial dilution in DMSO using the Bravo liquid handler. The 2× compound plate was generated by transferring 0.24 μL of the diluted compound in each well to a daughter plate using an Echo acoustic liquid handler. This is further diluted in 40 μL assay buffer, resulting in a range from […] to 1.5 nM final concentration in the assay. The agonist plate (5×) was prepared to include EC80 glutamate concentration (a concentration to elicit 80% of a maximally effective glutamate concentration) in thallium buffer (125 mM sodium bicarbonate, 1 mM magnesium sulfate, 1.8 mM calcium sulfate, 5 mM glucose, 10 mM HEPES, pH 7.2, 12.5 mM thallium sulfate).
(§3) After dye-loading, cell plates were washed with assay buffer to remove excess extracellular dye using a microplate washer, resulting in 20 μL of buffer remaining in each well. After a ten-minute equilibration period, cell, compound and agonist plates were loaded into a Hamamatsu μCell kinetic imaging plate reader equipped with liquid handler to monitor fluorescence changes at 480 nm excitation and 540 nm emission settings. Briefly, after collection of baseline fluorescence, 20 μL of compound was added and incubated for two minutes and twenty seconds. This is immediately followed by adding 10 μL of glutamate-thallium buffer to the wells containing compound. The fluorescent signal was monitored an additional 2.5 minutes after the glutamate addition. Multiple reference wells containing no compound received either no glutamate (for a baseline reference), EC80 glutamate, or ECmax glutamate (for normalization to maximum response). […] Each compound concentration series occurred one time in each plate, and replicates from two or three plates were used in each experimental run. Thallium solutions were handled and disposed of according to guidelines from the Vanderbilt University Chemical Safety department.
(§4) Data were normalized using a static ratio function (F/F0) by dividing every fluorescent measurement by the initial fluorescent value for the corresponding well. The increase in signal resulting from the glutamate/thallium addition of the second add was measured by determining the slope from 3 seconds to 13 seconds after the addition. The average of all baseline slopes (no compound, no glutamate) was determined and this value was subtracted from all other slope values. The average of all ECmax slopes was determined and this value was used to normalize the baseline-corrected slopes to a percent max value (% Emax).

human mGlu3 = biological target: T2, human mGlu3 (Homo sapiens, UniProt Q14832); assay: mGlu GIRK cell-based thallium flux assay, human mGlu3; details: HEK-293 cells co-expressing human mGlu3 and GIRK, EC80 glutamate, single experiment
T2 construct: expressed in transfected cells; host or cells: HEK-293 stably co-expressing GIRK channels
T2 sequence (Q14832 23-879): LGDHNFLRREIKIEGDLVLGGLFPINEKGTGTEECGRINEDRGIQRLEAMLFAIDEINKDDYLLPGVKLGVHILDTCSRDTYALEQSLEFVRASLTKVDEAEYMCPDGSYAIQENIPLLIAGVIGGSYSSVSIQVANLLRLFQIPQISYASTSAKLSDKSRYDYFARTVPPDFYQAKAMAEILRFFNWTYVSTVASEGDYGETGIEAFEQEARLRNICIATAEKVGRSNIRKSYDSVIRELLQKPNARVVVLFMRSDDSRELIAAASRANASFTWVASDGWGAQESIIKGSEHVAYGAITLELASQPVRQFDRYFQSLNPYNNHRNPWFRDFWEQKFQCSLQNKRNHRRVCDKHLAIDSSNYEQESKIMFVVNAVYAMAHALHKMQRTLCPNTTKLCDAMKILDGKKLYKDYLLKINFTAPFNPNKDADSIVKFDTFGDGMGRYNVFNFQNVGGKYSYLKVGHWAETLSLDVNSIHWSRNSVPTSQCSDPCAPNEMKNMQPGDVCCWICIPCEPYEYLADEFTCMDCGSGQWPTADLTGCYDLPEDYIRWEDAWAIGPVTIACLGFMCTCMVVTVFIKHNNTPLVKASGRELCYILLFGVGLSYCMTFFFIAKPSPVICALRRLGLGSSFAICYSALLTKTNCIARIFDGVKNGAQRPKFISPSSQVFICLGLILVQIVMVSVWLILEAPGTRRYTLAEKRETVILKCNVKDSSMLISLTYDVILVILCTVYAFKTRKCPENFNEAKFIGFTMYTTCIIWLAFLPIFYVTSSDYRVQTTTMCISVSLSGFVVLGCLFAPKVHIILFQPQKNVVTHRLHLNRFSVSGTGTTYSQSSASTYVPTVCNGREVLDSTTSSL
Description: as §1, §2, §3, §4

SMILES	IC50 (human mGlu2) [nM]	IC50 (human mGlu3) [nM]	Human mGlu3 GIRK IC50 (nM) (human mGlu3)
Cc1ccc(-c2cc(-c3ccc(F)cc3F)cc3c2CNC3=O)cn1 [Compound 5, 6-(2,4-difluorophenyl)-4-(6-methylpyridin-3-yl)isoindolin-1-one]	99	> 10000	–
O=C1NCc2c1cc(-c1ccc(F)cc1F)cc2-c1cnco1 [Compound 6, 6-(2,4-difluorophenyl)-4-(oxazol-5-yl)isoindolin-1-one]	66	–	Inactive
Cc1cc(-c2cc(-c3ccc(F)cc3F)cc3c2CNC3=O)cnn1 [Compound 13, 6-(2,4-difluorophenyl)-4-(6-methylpyridazin-4-yl)isoindolin-1-one]	163	–	Inactive
O=C1NCc2c1cc(-c1ccc(F)cc1F)cc2-c1cnn(C2CC2)c1 [Compound 18, 4-(1-cyclopropyl-1H-pyrazol-4-yl)-6-(2,4-difluorophenyl)isoindolin-1-one]	291	–	Inactive
Cn1cc(-c2cc(-c3ccc(F)cc3F)cc3c2CNC3=O)cn1 [Compound 19, 6-(2,4-difluorophenyl)-4-(1-methyl-1H-pyrazol-4-yl)isoindolin-1-one]	181	–	Inactive
CC(C)n1nccc1-c1cc(-c2ccc(F)cc2F)cc2c1CNC2=O [Compound 30, 6-(2,4-difluorophenyl)-4-(1-isopropyl-1H-pyrazol-5-yl)isoindolin-1-one]	126	> 10000	–
CC(=O)Nc1ccc(-c2cc(-c3ccc(F)cc3F)cc3c2CNC3=O)cn1 [Compound 34, N-(5-(6-(2,4-difluorophenyl)-1-oxoisoindolin-4-yl)pyridin-2-yl)acetamide]	185	–	Inactive
O=C1NCc2c1cc(-c1ccc(F)cc1F)cc2-c1ccc(C2CC2)nc1 [Compound 36, 4-(6-cyclopropylpyridin-3-yl)-6-(2,4-difluorophenyl)isoindolin-1-one]	1230	> 10000	–
O=C1NCc2c1cc(-c1ccc(F)cc1F)cc2-c1ccc2nccn2c1 [Compound 38, 6-(2,4-difluorophenyl)-4-(imidazo[1,2-a]pyridin-6-yl)isoindolin-1-one]	198	6410	–
O=C1NCc2c1cc(-c1cc(F)c(F)c(F)c1)cc2-c1cnsc1 [Compound 59, 4-(isothiazol-4-yl)-6-(3,4,5-trifluorophenyl)isoindolin-1-one]	> 10000	–	–
Cc1cc(-c2cc3c(c(-c4cnsc4)c2)CNC3=O)c(F)cn1 [Compound 61, 6-(5-fluoro-2-methylpyridin-4-yl)-4-(isothiazol-4-yl)isoindolin-1-one]	1190	–	–
Cc1cc(-c2cc(-c3ccc(F)cc3F)cc3c2CNC3=O)n(C)n1 [Compound 79, 6-(2,4-difluorophenyl)-4-(1,3-dimethyl-1H-pyrazol-5-yl)isoindolin-1-one]	–	> 10000	–
CC(C)n1nccc1-c1cc(C2CCOCC2)cc2c1CNC2=O [Compound 88, 4-(1-isopropyl-1H-pyrazol-5-yl)-6-(tetrahydro-2H-pyran-4-yl)isoindolin-1-one]	1700	–	–
Cc1ccncc1-c1cc(-c2ccc(F)cc2F)cc2c1CNC2=O [Compound 89, 6-(2,4-difluorophenyl)-4-(4-methylpyridin-3-yl)isoindolin-1-one]	118	–	–
O=C1NCc2c1cc(-c1ccc(F)cc1F)cc2-c1ccnc(C(F)(F)F)c1 [Compound 90, 6-(2,4-difluorophenyl)-4-(2-(trifluoromethyl)pyridin-4-yl)isoindolin-1-one]	303	–	–
COc1cc(-c2cc(-c3ccc(F)cc3F)cc3c2CNC3=O)cc(C)n1 [Compound 91, 6-(2,4-difluorophenyl)-4-(2-methoxy-6-methylpyridin-4-yl)isoindolin-1-one]	433	–	–
Cc1nn(C)c(C)c1-c1cc(C2=CCOCC2)cc2c1CNC2=O [Compound 92, 6-(3,6-dihydro-2H-pyran-4-yl)-4-(1,3,5-trimethyl-1H-pyrazol-4-yl)isoindolin-1-one]	424	–	–
Cc1c(-c2cc(C3=CCOCC3)cc3c2CNC3=O)cnn1C [Compound 93, 6-(3,6-dihydro-2H-pyran-4-yl)-4-(1,5-dimethyl-1H-pyrazol-4-yl)isoindolin-1-one]	258	–	–
Cc1cnn(C)c1-c1cc(C2=CCOCC2)cc2c1CNC2=O [Compound 94, 6-(3,6-dihydro-2H-pyran-4-yl)-4-(1,4-dimethyl-1H-pyrazol-5-yl)isoindolin-1-one]	340	–	–
CCn1nccc1-c1cc(C2=CCOCC2)cc2c1CNC2=O [Compound 95, 6-(3,6-dihydro-2H-pyran-4-yl)-4-(1-ethyl-1H-pyrazol-5-yl)isoindolin-1-one]	323	–	–
Cc1cc(-c2cc(C3=CCOCC3)cc3c2CNC3=O)n(C)n1 [Compound 96, 6-(3,6-dihydro-2H-pyran-4-yl)-4-(1,3-dimethyl-1H-pyrazol-5-yl)isoindolin-1-one]	380	–	–
Cc1ncccc1-c1cc(C2=CCOCC2)cc2c1CNC2=O [Compound 97, 6-(3,6-dihydro-2H-pyran-4-yl)-4-(2-methylpyridin-3-yl)isoindolin-1-one]	195	–	–
Cc1nn(C)c(C)c1-c1cc(C2CCOCC2)cc2c1CNC2=O [Compound 98, 6-(tetrahydro-2H-pyran-4-yl)-4-(1,3,5-trimethyl-1H-pyrazol-4-yl)isoindolin-1-one]	985	–	–
Cc1c(-c2cc(C3CCOCC3)cc3c2CNC3=O)cnn1C [Compound 99, 4-(1,5-dimethyl-1H-pyrazol-4-yl)-6-(tetrahydro-2H-pyran-4-yl)isoindolin-1-one]	2950	–	–

The remaining lines, values ahead:

IC50 (human mGlu2) [nM]	IC50 (human mGlu3) [nM]	Human mGlu3 GIRK IC50 (nM) (human mGlu3)	SMILES
1220	–	–	O=C1NCc2c1cc(-c1ccc(F)cc1F)cc2N1CC(O)(C(F)(F)F)C1 [Compound A19, 6-(2,4-difluorophenyl)-4-(3-hydroxy-3-(trifluoromethyl)azetidin-1-yl)isoindolin-1-one]
286	–	–	O=C1CC2(CN1)CN(c1cc(-c3ccc(F)cc3F)cc3c1CNC3=O)C2 [Compound A20, 6-(2,4-difluorophenyl)-4-(7-oxo-2,6-diazaspiro[3.4]octan-2-yl)isoindolin-1-one]
> 10000	–	–	Cn1cc2c(n1)CN(c1cc(-c3ccc(F)cc3F)cc3c1CNC3=O)C2 [Compound A22, 6-(2,4-difluorophenyl)-4-(2-methyl-2,6-dihydropyrrolo[3,4-c]pyrazol-5(4H)-yl)isoindolin-1-one]
488	–	–	Cc1cc2n(n1)CCN2c1cc(-c2ccc(F)cc2F)cc2c1CNC2=O [Compound A23, 6-(2,4-difluorophenyl)-4-(6-methyl-2,3-dihydro-1H-imidazo[1,2-b]pyrazol-1-yl)isoindolin-1-one]
292	–	–	O=C1NCc2c(CN3CC4CCC(C3)O4)cc(-c3ccc(F)cc3F)cc21 [Compound B7, 4-((8-oxa-3-azabicyclo[3.2.1]octan-3-yl)methyl)-6-(2,4-difluorophenyl)isoindolin-1-one]
193	–	–	O=C1NCc2c(CN3CC(O)(C(F)(F)F)C3)cc(-c3ccc(F)cc3F)cc21 [Compound B8, 6-(2,4-difluorophenyl)-4-((3-hydroxy-3-(trifluoromethyl)azetidin-1-yl)methyl)isoindolin-1-one]
853	–	–	O=C1NCc2c1cc(-c1ccc(F)cc1F)cc2C1=CCCCO1 [Compound B9, 6-(2,4-difluorophenyl)-4-(3,4-dihydro-2H-pyran-6-yl)isoindolin-1-one]
329	–	–	O=C1NCc2c1cc(-c1ccc(F)cc1F)cc2C1CCCCO1 (centres unmarked) [Compound B10, 6-(2,4-difluorophenyl)-4-(tetrahydro-2H-pyran-2-yl)isoindolin-1-one]
